Where two headings read alike, the source gives them in different places.
Test system: Anopheles arabiensis
Assay: Larvicidal screening (WHO protocol), 3rd instar larvae
Format: in vivo
Settings: for mortality at 4 µg/mL: Anopheles arabiensis
Protocol: Anopheles arabiensis was used in the study according to the protocol described by WHO (1975) guidelines in an insectary simulating the temperature (27.5° C.), humidity (70%), and lighting (12/12) of a malaria-endemic environment. One mL of test compound (1 mg/mL) was added to 1 mL of acetone and followed by […] of distilled water to obtain a final concentration of 4 μg/mL. Thirty individuals of 3rd instar larvae were introduced into a container. Negative control was set up using the solvent (acetone) and distilled water, and a positive control included Temephos, which is an active emulsified organophosphate larvicidal used by malaria control programs. Larval mortality was examined for each container separately for 24 h and fed specially made cat food that contained less oil/fat content. The percentage of mortality was determined relative to the initial number of larvae exposed.
Differences in larval mortality between treatments were assessed with generalized linear models using a quasi-Poisson link function. Anopheles arabiensis mortality was the dependent variable, while fixed effects were test compounds and observation period (24 and 48 h). A p-value <0.05 was considered statistically significant. Throughout the text, the results are presented as the adjusted mean±the standard error.

[1] = 24 h, read-out: larval mortality rate in 24 hours
[2] = 48 h, read-out: larval mortality rate in 48 hours

Compound | mortality at 4 µg/mL (24 h, read-out: Mortality 24 h) [%] | mortality at 4 µg/mL [1] [%] | mortality at 4 µg/mL (48 h, read-out: Mortality 48 h) [%] | mortality at 4 µg/mL [2] [%] | Mortality 24 h (Anopheles arabiensis larvae exposed 24 h, 4 μg/mL, adjusted mean ± standard error) [%] | Mortality 48 h (Anopheles arabiensis larvae exposed 48 h, 4 μg/mL, adjusted mean ± standard error) [%] | larval mortality rate in 24 hours (in 24 hours) | larval mortality rate in 48 hours (in 48 hours)
COC(=O)c1c(C(=O)OC)c2cc(C(=O)OC(C)C)ccn2c1C(=O)c1ccc(Cl)cc1 [Compound 3e, 7-Isopropyl 1,2-dimethyl 3-(4-chlorobenzoyl)indolizine-1,2,7-tricarboxylate] | 67.9 ± 2.91 | 67.9 ± 2.91 | 70.9 ± 1.67 | 70.9 ± 1.67 | – | – | – | –
COC(=O)c1c(C(=O)OC)c2cc(C(=O)OC(C)C)ccn2c1C(=O)c1ccccc1 [Compound 3a, 7-Isopropyl 1,2-dimethyl 3-benzoylindolizine-1,2,7-tricarboxylate] | 39.2 ± 1.64 | 39.2 ± 1.64 | 45.5 ± 2.65 | 45.5 ± 2.65 | – | – | – | –
CCOC(=O)c1cc(C(=O)c2ccc(F)cc2)n2ccc(C(=O)OC(C)C)cc12 [Compound 3d, 1-Ethyl 7-isopropyl 3-(4-fluorobenzoyl)indolizine-1,7-dicarboxylate] | 87.3 ± 1.64 | 87.3 ± 1.64 | 91.2 ± 3.18 | 91.2 ± 3.18 | – | – | – | –
CCOC(=O)c1cc(C(=O)c2ccc(C#N)cc2)n2ccc(C(=O)OC(C)C)cc12 [Compound 3j, 1-Ethyl 7-isopropyl 3-(4-cyanobenzoyl)indolizine-1,7-dicarboxylate] | 61.6 ± 1.23 | 61.6 ± 1.23 | 66.1 ± 2.62 | 66.1 ± 2.62 | – | – | – | –
CCOC(=O)c1cc(C(=O)c2ccc(Br)cc2)n2ccc(C(=O)OC(C)C)cc12 [Compound 3h, 1-Ethyl 7-isopropyl 3-(4-bromobenzoyl)indolizine-1,7-dicarboxylate] | 82.3 ± 1.23 | 82.3 ± 1.23 | 86.7 ± 1.39 | 86.7 ± 1.39 | – | – | – | –
COP(=S)(OC)Oc1ccc(Sc2ccc(OP(=S)(OC)OC)cc2)cc1 [Temephos, reference compound] | 98.3 | – | 100 | – | – | – | – | –
COC(=O)c1c(C(=O)OC)c2cc(C(=O)OC(C)C)ccn2c1C(=O)c1ccc(F)cc1 [Compound 3c, 7-Isopropyl 1,2-dimethyl 3-(4-fluorobenzoyl)indolizine-1,2,7-tricarboxylate] | 79.1 ± 1.65 | 79.1 ± 1.65 | 82.3 ± 2.71 | 82.3 ± 2.71 | – | – | – | –
CCOC(=O)c1cc(C(=O)c2ccccc2)n2ccc(C(=O)OC(C)C)cc12 [Compound 3b, 1-Ethyl 7-isopropyl 3-benzoylindolizine-1,7-dicarboxylate] | 32.6 ± 2.44 | 32.6 ± 2.44 | 36.8 ± 1.79 | 36.8 ± 1.79 | – | – | – | –
CCOC(=O)c1cc(C(=O)c2ccc(Cl)cc2)n2ccc(C(=O)OC(C)C)cc12 [Compound 3f, 1-Ethyl 7-isopropyl 3-(4-chlorobenzoyl)indolizine-1,7-dicarboxylate] | 66 ± 2.94 | 66 ± 2.94 | 69.2 ± 2.47 | 69.2 ± 2.47 | – | – | – | –
COC(=O)c1c(C(=O)OC)c2cc(C(=O)OC(C)C)ccn2c1C(=O)c1ccc(Br)cc1 [Compound 3g, 7-Isopropyl 1,2-dimethyl 3-(4-bromobenzoyl)indolizine-1,2,7-tricarboxylate] | 89.4 ± 2.42 | 89.4 ± 2.42 | 91.1 ± 2.21 | 91.1 ± 2.21 | – | – | – | –
COC(=O)c1c(C(=O)OC)c2cc(C(=O)OC(C)C)ccn2c1C(=O)c1ccc(C)cc1 [Compound 3k, 7-Isopropyl 1,2-dimethyl 3-(4-methylbenzoyl)indolizine-1,2,7-tricarboxylate] | 57.5 ± 1.32 | 57.5 ± 1.32 | 60 ± 1.87 | 60 ± 1.87 | – | – | – | –
1-Ethyl 7-isopropyl 3-(3,5-bis(trifluoromethyl)benzoyl)indolizine-1,7-dicarboxylate [Compound 3m] | – | – | – | – | 93.45 ± 1.29 | 96.12 ± 1.90 | 93.45±1.29 | 96.12±1.90
COC(=O)c1c(C(=O)OC)c2cc(C(=O)OC(C)C)ccn2c1C(=O)c1ccc(C#N)cc1 [Compound 3i, 7-isopropyl 1,2-dimethyl 3-(4-cyanobenzoyl)indolizine-1,2,7-tricarboxylate] | 62.4 ± 1.8 | 62.4 ± 1.8 | 63.8 ± 1.9 | 63.8 ± 1.9 | – | – | – | –
COC(=O)c1c(C(=O)OC)c2cc(C(=O)OC(C)C)ccn2c1C(=O)c1cc(C(F)(F)F)cc(C(F)(F)F)c1 [Compound 3l, 7-Isopropyl 1,2-dimethyl 3-(3,5-bis(trifluoromethyl)benzoyl)indolizine-1,2,7-tricarboxylate] | 97.2 ± 2.3 | 97.2 ± 2.3 | 99.5 ± 1.49 | 99.5 ± 1.49 | – | – | – | –
